# In ChEMBL document CHEMBL1143809, “New bis-N9-(methylphenylmethyl)purine derivatives: synthesis and antitumor activity” (2007):
# What was measured:
# Assay type in all cases: functional
# SK-MEL-28 = test: Growth inhibition of human SK-MEL-28 cells after 48 hrs by SRB protein assay; conditions: SK-MEL-28, 48 h
# UACC-257 = test: Growth inhibition of human UACC257 cells after 48 hrs by SRB protein assay; conditions: UACC-257, 48 h
# UACC-62 = test: Growth inhibition of human UACC62 cells after 48 hrs by SRB protein assay; conditions: UACC-62, 48 h
# OVCAR-3 = test: Growth inhibition of human OVCAR-3 cells after 48 hrs by SRB protein assay; conditions: OVCAR-3, 48 h
# NCI-H460 [1] = test: Anticancer activity against human NCL-H460 cells assessed as growth at 100 uM after 48 hrs by SRB protein assay relative to control; conditions: NCI-H460, 48 h, read-out: Activity
# MCF7 [2] = test: Anticancer activity against human MCF7 cells assessed as growth at 100 uM after 48 hrs by SRB protein assay relative to control; conditions: MCF7, 48 h, read-out: Activity
# SF-268 = test: Anticancer activity against human SF268 cells assessed as growth at 100 uM after 48 hrs by SRB protein assay relative to control; conditions: SF-268, 48 h, read-out: Activity
# CCRF-CEM = test: Growth inhibition of human CCRF-CEM cells after 48 hrs by SRB protein assay
# MOLT-4 = test: Growth inhibition of human MOLT4 cells after 48 hrs by SRB protein assay; conditions: MOLT-4, 48 h
# A549 = test: Growth inhibition of human A549 cells after 48 hrs by SRB protein assay; conditions: A549, 48 h
# EKVX = test: Growth inhibition of human EKVX cells after 48 hrs by SRB protein assay
# HOP-62 = test: Growth inhibition of human HOP62 cells after 48 hrs by SRB protein assay; conditions: HOP-62, 48 h
# [3] = Growth inhibition of human NCL-H322M cells after 48 hrs by SRB protein assay
# NCI-H460 [4] = test: Growth inhibition of human NCL-H460 cells after 48 hrs by SRB protein assay; conditions: NCI-H460, 48 h
# [5] = Growth inhibition of human NCL-H522 cells after 48 hrs by SRB protein assay; conditions: NCL-H522, 48 h
# COLO 205 = test: Growth inhibition of human COLO205 cells after 48 hrs by SRB protein assay; conditions: COLO 205, 48 h
# HCC 2998 = test: Growth inhibition of human HCC2998 cells after 48 hrs by SRB protein assay; conditions: HCC 2998, 48 h
# KM12 = test: Growth inhibition of human KM12 cells after 48 hrs by SRB protein assay; conditions: KM12, 48 h
# SNB-75 = test: Growth inhibition of human SNB75 cells after 48 hrs by SRB protein assay; conditions: SNB-75, 48 h
# U-251 = test: Growth inhibition of human U251 cells after 48 hrs by SRB protein assay; conditions: U-251, 48 h
# [6] = Growth inhibition of human LOX MIVI cells after 48 hrs by SRB protein assay
# 786-0 = test: Growth inhibition of human 786-0 cells after 48 hrs by SRB protein assay; conditions: 786-0, 48 h
# A498 = test: Growth inhibition of human A498 cells after 48 hrs by SRB protein assay; conditions: A498, 48 h
# ACHN = test: Growth inhibition of human ACHN cells after 48 hrs by SRB protein assay
# RXF 393 = test: Growth inhibition of human RXF393 cells after 48 hrs by SRB protein assay; conditions: RXF 393, 48 h
# TK-10 = test: Growth inhibition of human TK10 cells after 48 hrs by SRB protein assay; conditions: TK-10, 48 h
# PC-3 = test: Growth inhibition of human PC3 cells after 48 hrs by SRB protein assay; conditions: PC-3, 48 h
# DU-145 = test: Growth inhibition of human DU145 cells after 48 hrs by SRB protein assay; conditions: DU-145, 48 h
# MCF7 [7] = test: Growth inhibition of human MCF7 cells after 48 hrs by SRB protein assay; conditions: MCF7, 48 h
# NCI/ADR-RES = test: Growth inhibition of human NCI/ADR-RES cells after 48 hrs by SRB protein assay
# MDA-MB-435 = test: Growth inhibition of human MDA-MB-435 cells after 48 hrs by SRB protein assay; conditions: MDA-MB-435, 48 h
# BT-549 = test: Growth inhibition of human BT549 cells after 48 hrs by SRB protein assay; conditions: BT-549, 48 h
# HOP-92 = test: Growth inhibition of human HOP92 cells after 48 hrs by SRB protein assay; conditions: HOP-92, 48 h
# HCT-116 = test: Growth inhibition of human HCT116 cells after 48 hrs by SRB protein assay; conditions: HCT-116, 48 h
# [8] = read-out: LC50 (the source's name)
smiles,measurement,setting,value
Clc1nc(Cl)c2ncn(Cc3ccc(Cn4cnc5c(Cl)nc(Cl)nc54)cc3)c2n1,GI50,SK-MEL-28,< 0.01 µM
same,LC50,SK-MEL-28,42.6 µM
same,TGI,SK-MEL-28,18.2 µM
same,TGI,UACC-257,25.1 µM
same,CC50,UACC-257; [8],50.1 µM
same,GI50,UACC-62,13.8 µM
same,LC50 (concentration killing 50% of cells),UACC-62,51.3 µM
same,TGI,UACC-62,26.9 µM
same,GI50,OVCAR-3,13.5 µM
same,LC50,OVCAR-3,51.3 µM
same,TGI,OVCAR-3,26.3 µM
same,growth at 100 µM,NCI-H460 [1],0%
same,growth at 100 µM,MCF7 [2],0%
same,growth at 100 µM,SF-268,58%
same,GI50,CCRF-CEM,10.2 µM
same,TGI,CCRF-CEM,22.9 µM
same,CC50,CCRF-CEM; [8],51.3 µM
same,GI50,MOLT-4,7.94 µM
same,LC50,MOLT-4,45.7 µM
same,TGI,MOLT-4,20.9 µM
same,LC50,A549,50.1 µM
same,TGI,A549,25.1 µM
same,GI50,EKVX,< 0.01 µM
same,LC50,EKVX,44.7 µM
same,TGI,EKVX,19.9 µM
same,LC50,HOP-62,51.3 µM
same,TGI,HOP-62,26.3 µM
same,TGI,[3],33.9 µM
same,CC50,[3]; [8],91.2 µM
same,GI50,NCI-H460 [4],14.1 µM
same,TGI,NCI-H460 [4],26.9 µM
same,CC50,NCI-H460 [4]; [8],52.5 µM
same,GI50,[5],12.3 µM
same,LC50,[5],52.5 µM
same,TGI,[5],25.7 µM
same,LC50,COLO 205,41.7 µM
same,TGI,COLO 205,17.4 µM
same,LC50,HCC 2998,50.1 µM
same,TGI,HCC 2998,25.1 µM
same,GI50,KM12,14.1 µM
same,LC50 (concentration killing 50% of cells),KM12,52.5 µM
same,TGI,KM12,27.5 µM
same,GI50,SNB-75,< 0.01 µM
same,TGI,SNB-75,17 µM
same,CC50,SNB-75; [8],41.7 µM
same,GI50,U-251,13.8 µM
same,TGI,U-251,26.9 µM
same,CC50,U-251; [8],51.3 µM
same,GI50,[6],2.88 µM
same,LC50,[6],41.7 µM
same,TGI,[6],17.4 µM
same,GI50,786-0,14.5 µM
same,TGI,786-0,27.5 µM
same,CC50,786-0; [8],52.5 µM
same,TGI,A498,22.9 µM
same,CC50,A498; [8],47.9 µM
same,GI50,ACHN,12.6 µM
same,LC50,ACHN,50.1 µM
same,TGI,ACHN,25.1 µM
same,GI50,RXF 393,< 0.01 µM
same,CC50,RXF 393; [8],20.9 µM
same,GI50,TK-10,13.2 µM
same,LC50 (50% lethal concentration),TK-10,51.3 µM
same,TGI,TK-10,26.3 µM
same,GI50,PC-3,12.9 µM
same,TGI,PC-3,25.7 µM
same,CC50,PC-3; [8],50.1 µM
same,GI50,DU-145,< 0.01 µM
same,TGI,DU-145,4.16 µM
same,CC50,DU-145; [8],26.3 µM
same,GI50,MCF7 [7],10.5 µM
same,LC50,MCF7 [7],61.7 µM
same,TGI,MCF7 [7],25.1 µM
same,GI50,NCI/ADR-RES,13.8 µM
same,LC50,NCI/ADR-RES,60.2 µM
same,TGI,NCI/ADR-RES,28.8 µM
same,GI50,MDA-MB-435,16.6 µM
same,LC50,MDA-MB-435,61.7 µM
same,TGI,MDA-MB-435,31.6 µM
same,GI50,BT-549,< 0.01 µM
same,TGI,BT-549,19.1 µM
same,CC50,BT-549; [8],43.6 µM
same,LC50,HOP-92,57.5 µM
same,TGI,HOP-92,26.3 µM
same,GI50,HCT-116,9.33 µM
same,TGI,HCT-116,21.4 µM
same,CC50,HCT-116; [8],46.8 µM
